Measured values published in patent US5602101A, “Antithrombotic agents” (priority 1994, dated 1997).

Columns and labels:
Format in all cases: biochemical
human thrombin = target: T1, human thrombin (Homo sapiens, UniProt P00734); test: Inhibition of amidase activity of thrombin (chromogenic substrate), Kass; conditions: substrate N-benzoyl-Phe-Val-Arg-p-nitroanilide, pH 7.4
T1 construct: purified human thrombin Enzyme Research Laboratories, South Bend, Ind; purchased Enzyme Research Laboratories, South Bend, Ind
Procedure: (§1) The assay is carried out by mixing 50 μl buffer (0.03M Tris, 0.15M NaCl, pH 7.4), 25 μl of human thrombin solution (purified human thrombin Enzyme Research Laboratories, South Bend, Ind.) at 8 NIH units/ml and 25 μl of test compound in a solvent (50% aqueous methanol (v:v)). Then 150 μl of an aqueous solution of the chromogenic substrate (at 0.25 mg/ml) are added and the rates of hydrolysis of the substrate are measured by monitoring the reactions at 405 nm for the release of p-nitroaniline. Standard curves are constructed by plotting free thrombin concentration against hydrolysis rate. The hydrolysis rates observed with test compounds are then converted to "free thrombin" values in the respective assays by use of the standard curves. The bound thrombin (bound to test compound) is calculated by subtracting the amount of free thrombin observed in each assay from the known initial amount of thrombin used in the assay. The amount of free inhibitor in each assay is calculated by subtracting the number of moles of bound thrombin from the number of moles of added inhibitor (test compound).
The Kass value is the hypothetical equilibrium constant for the reaction between thrombin and the test compound (I). [drawing 53]
(§2) Kass is calculated for a range of concentrations of test compounds and the mean value is reported in units of liter per mole.

factor Xa = target: T2, factor Xa (Homo sapiens, UniProt P00742); test: Serine protease inhibition, factor Xa (chromogenic substrate), Kass; conditions: substrate N-Benzoyl-Ile-Glu-Gly-Arg-p-nitroanilide
T2 construct: Human factors X, Xa, IXa, XIa, and xIIa are purchased from Enzyme Research Laboratories; purchased Enzyme Research Laboratories, South Bend, Ind
Procedure: as §1, §2
(§3) By substantially following the procedures described above for human thrombin, and using other human blood coagulation system serine proteases, and using fibrinolytic system serine proteases, with the appropriate chromogenic substrate, identified below, selectivity of the compounds of the present invention with respect to the coagulation factor serine proteases and to the fibrinolytic serine proteases are evaluated as well as their substantial lack of interference with human plasma clot fibrinolysis.
(§4) Human factors X, Xa, IXa, XIa, and xIIa are purchased from Enzyme Research Laboratories, South Bend, Ind.; human urokinase from Leo Pharmaceuticals, Denmark; and recombinant activated Protein C (aPC) is prepared at Eli Lilly and Co. substantially according to U.S. Pat. No. 4,981,952 incorporated by reference herein in its entirety. Chromogenic substrates: N-Benzoyl-Ile-Glu-Gly-Arg-p-nitroanilide (for factor Xa); N-Cbz-D-Arg-Gly-Arg-p-nitroanilide (for factor IXa assay as the factor Xa substrate) pyroglutamyl-Pro-Arg-p-nitroanilide (for factor XIa and for aPC); H-D-Pro-Phe-Arg-p-nitroanilide (for factor XIIa); and pyroglutamyl-Gly-Arg-p-nitroanilide (for urokinase); are purchased from KabiVitrum, Stockholm, Sweden, or from Midwest Biotech, Fishers, Indiana. Bovine trypsin is purchased from Worthington Biochemicals, Freehold, N.J., and human plasma kallikrein from Kabi Vitrum, Stockholm, Sweden. N-Benzoyl-Phe-Val-Arg-p-nitroanilide, the substrate for human thrombin and for trypsin, is synthesized according to procedures described above for the compounds of the present invention, known methods of peptide coupling from commercially available reactants, or was purchased from Midwest Biotech, Fishers, Ind. Human plasmin is purchased from Boehringer Mannheim, Indianapolis, Ind.; nt-PA is purchased as single chain activity reference from American Diagnostics, Greenwich, Conn.; modified-t-PA6 (mt-PA6) is prepared at Eli Lilly and Company by procedure known in the art (See, Burck, et al., J. Biol. Chem., 265, […] (1990). Plasmin chromogenic substrate H-D-Val-Leu-Lys-p-nitroanilide and tissue plasminegen activator (t-PA) substrate H-D-Ile-Pro-Arg-p-nitroanilide are purchased from Kabi Vitrum, Stockholm, Sweden.

Bovine trypsin = target: T3, Bovine trypsin (Bos taurus, UniProt P00760); test: Serine protease inhibition, trypsin (chromogenic substrate), Kass; conditions: substrate N-Benzoyl-Phe-Val-Arg-p-nitroanilide
T3 construct: Bovine trypsin is purchased from Worthington Biochemicals, Freehold, N.J; purchased Worthington Biochemicals, Freehold, N.J
T3 sequence (P00760 24-246): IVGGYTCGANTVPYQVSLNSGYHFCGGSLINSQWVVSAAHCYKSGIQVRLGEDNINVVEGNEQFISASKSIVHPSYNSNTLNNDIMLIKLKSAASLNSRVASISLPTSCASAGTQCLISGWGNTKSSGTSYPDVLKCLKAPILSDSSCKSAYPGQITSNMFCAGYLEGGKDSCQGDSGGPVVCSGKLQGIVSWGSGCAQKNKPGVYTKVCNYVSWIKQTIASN
Procedure: as §1, §2, §3, §4

Human plasmin = target: T4, Human plasmin (Homo sapiens, UniProt P00747); test: Serine protease inhibition, plasmin (chromogenic substrate), Kass; conditions: substrate H-D-Val-Leu-Lys-p-nitroanilide
T4 construct: Human plasmin is purchased from Boehringer Mannheim, Indianapolis, Ind; purchased Boehringer Mannheim, Indianapolis, Ind
Procedure: as §1, §2, §3, §4

[1] = target: T5, tissue plasminogen activator (t-PA) (Homo sapiens, UniProt P00750); test: Serine protease inhibition, t-PA (chromogenic substrate), Kass; conditions: substrate H-D-Ile-Pro-Arg-p-nitroanilide
T5 construct: purchased American Diagnostics, Greenwich, Conn
Procedure: as §1, §2, §3, §4

Human Plasma [2] = test: Anticoagulation in human plasma, thrombin time (TT); conditions: concentration required to double the thrombin time
Procedure: (§5) Dog plasma and rat plasma are obtained from conscious mixed-breed hounds (either sex, Hazelton-LRE, Kalamazoo, Mich., U.S.A.) or from anesthetized male Sprague-Dawley rats (Harlan Sprague-Dawley, Inc., Indianapolis, Ind., U.S.A.) by venipuncture into 3.8 percent citrate. Fibrinogen is prepared from in-date ACD human blood as the fraction I-2 according to previous procedures and specifications. Smith, Biochem. Chem. […] Human fibrinogen is also purchased as 98 percent pure/plasmin free from American Diagnostics, Greenwich, Conn. Coagulation reagents ACTIN, Thromboplastin, and Human plasma are from Baxter Healthcare Corp., Dade Division, Miami, Fla. Bovine thrombin from Parke-Davis (Ann Arbor, Mich.) is used for coagulation assays in plasma. Coagulation assay procedures are as previously described. Smith, et al., Thrombosis Research, 5, 163-174 (1988). A CoAScreener coagulation instrument (American LABor, Inc.) is used for all coagulation assay measurements. The prothrombin time (PT) is measured by adding 0.05 ml saline and 0.05 ml Thromboplastin-C reagent to 0.05 ml test plasma. The activated partial thromboplastin time (APTT) is measured by incubation of 0.05 ml test plasma with 0.05 ml Actin reagent for 120 seconds followed by 0.05 ml CaCl2 (0.02M). […] The compounds of formula I are added to human or animal plasma over a wide range of concentrations to determine prolongation effects on the APTT, PT, and TT assays. Linear extrapolations are performed to estimate the concentrations required to double the clotting time for each assay.

Human Plasma [3] = test: Anticoagulation in human plasma, activated partial thromboplastin time (APTT); conditions: concentration required to double the APTT
Procedure: as §5

Human Plasma [4] = test: Anticoagulation in human plasma, prothrombin time (PT); conditions: concentration required to double the PT
Procedure: as §5

T2 sequence (P00742 235-488 limits assumed): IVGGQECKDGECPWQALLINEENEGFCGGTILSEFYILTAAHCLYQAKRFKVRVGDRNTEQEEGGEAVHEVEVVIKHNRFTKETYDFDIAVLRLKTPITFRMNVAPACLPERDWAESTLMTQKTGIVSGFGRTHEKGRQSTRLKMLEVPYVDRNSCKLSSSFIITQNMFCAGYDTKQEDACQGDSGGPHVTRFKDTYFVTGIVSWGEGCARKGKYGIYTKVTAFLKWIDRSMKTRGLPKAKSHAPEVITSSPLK
T2 sequence (P00742 41-179 partner limits assumed): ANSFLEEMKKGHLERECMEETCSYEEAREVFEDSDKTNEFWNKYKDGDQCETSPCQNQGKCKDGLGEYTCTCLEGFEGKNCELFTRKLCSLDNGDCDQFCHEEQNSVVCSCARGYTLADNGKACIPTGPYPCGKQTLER
T4 sequence (P00747 581-810 limits assumed): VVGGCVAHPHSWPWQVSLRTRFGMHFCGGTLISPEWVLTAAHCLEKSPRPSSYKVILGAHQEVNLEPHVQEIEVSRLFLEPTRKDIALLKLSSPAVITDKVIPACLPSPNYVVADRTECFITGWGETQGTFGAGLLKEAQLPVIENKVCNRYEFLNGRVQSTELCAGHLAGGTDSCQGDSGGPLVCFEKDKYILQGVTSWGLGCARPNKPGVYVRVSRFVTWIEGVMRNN
T4 sequence (P00747 97-580 partner limits assumed): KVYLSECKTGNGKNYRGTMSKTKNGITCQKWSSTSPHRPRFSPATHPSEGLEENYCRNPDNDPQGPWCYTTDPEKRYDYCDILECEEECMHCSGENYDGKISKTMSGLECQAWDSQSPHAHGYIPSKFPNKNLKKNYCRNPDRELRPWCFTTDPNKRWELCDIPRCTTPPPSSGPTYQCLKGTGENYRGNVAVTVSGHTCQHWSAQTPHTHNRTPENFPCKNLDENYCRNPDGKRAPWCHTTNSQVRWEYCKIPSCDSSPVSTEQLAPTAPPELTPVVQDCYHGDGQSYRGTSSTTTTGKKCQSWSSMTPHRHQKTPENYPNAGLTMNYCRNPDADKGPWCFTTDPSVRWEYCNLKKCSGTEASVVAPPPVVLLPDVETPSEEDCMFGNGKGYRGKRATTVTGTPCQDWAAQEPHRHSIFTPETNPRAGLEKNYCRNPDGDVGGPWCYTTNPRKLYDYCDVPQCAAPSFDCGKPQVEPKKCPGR
T5 sequence (P00750 36-562): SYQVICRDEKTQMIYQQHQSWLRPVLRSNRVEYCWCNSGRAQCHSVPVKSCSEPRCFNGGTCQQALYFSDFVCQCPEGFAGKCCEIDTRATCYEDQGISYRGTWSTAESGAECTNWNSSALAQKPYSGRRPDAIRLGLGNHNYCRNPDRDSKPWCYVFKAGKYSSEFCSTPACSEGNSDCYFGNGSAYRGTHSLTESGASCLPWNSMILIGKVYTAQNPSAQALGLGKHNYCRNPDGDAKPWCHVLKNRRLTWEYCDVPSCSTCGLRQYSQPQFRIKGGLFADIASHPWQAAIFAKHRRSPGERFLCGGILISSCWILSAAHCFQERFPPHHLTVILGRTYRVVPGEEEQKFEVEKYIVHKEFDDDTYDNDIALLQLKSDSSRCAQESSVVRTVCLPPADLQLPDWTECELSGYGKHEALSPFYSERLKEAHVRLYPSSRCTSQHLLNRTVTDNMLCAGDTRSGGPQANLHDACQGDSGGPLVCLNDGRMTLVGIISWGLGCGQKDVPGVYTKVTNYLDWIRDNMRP

SMILES | Enzyme Kass, Human Thrombin (human thrombin) | Enzyme Kass, Xa (factor Xa) | Enzyme Kass, Trypsin (Bovine trypsin) | Enzyme Kass, Plasmin (Human plasmin) | Enzyme Kass, t-Pa [1] | 2 × Clotting time, TT (Human Plasma [2]) | 2 × Clotting time, APTT (Human Plasma [3]) | 2 × Clotting time, PT (Human Plasma [4])
Cl.NC(N)=NCCCC(C=O)NC(=O)C1CCCN1C(=O)C(Cc1ccccc1)NC(=O)Cc1cccnc1 [Example 4, N-(α-(3-pyridyl)-acetyl)-D-Phe-Pro-Arg-H-HCl] | 13 L/mol × 10^6 | 0.067 L/mol × 10^6 | 5.2 L/mol × 10^6 | 0.27 L/mol × 10^6 | 0.22 L/mol × 10^6 | 150 ng/mL | 2,300 ng/ML | 3,400 ng/ML
Cl.Cn1c(C(=O)NC(CC2CCCCC2)C(=O)N2CCCC2C(=O)NC(C=O)CCCN=C(N)N)cc2ccccc21 [Example 5, NMI-D-Cha-Pro-Arg-H.HCl] | 320 L/mol × 10^6 | 4.6 L/mol × 10^6 | 7.9 L/mol × 10^6 | 25 L/mol × 10^6 | 1.1 L/mol × 10^6 | 110 ng/mL | 1,000 ng/ML | 2,500 ng/ML
Cl.NC(N)=NCCCC(C=O)NC(=O)C1CCCN1C(=O)C(CC1CCCCC1)NC(=O)c1ccc2ccccc2n1 [Example 6, N-(quinolinyl-2-carbonyl)-D-Cha-Pro-Arg-H-HCl] | 200 L/mol × 10^6 | 0.83 L/mol × 10^6 | 2.5 L/mol × 10^6 | 2.5 L/mol × 10^6 | 0.088 L/mol × 10^6 | 97 ng/mL | 1,400 ng/ML | 2,700 ng/ML
COc1ccc(OC)c(S(=O)(=O)N[C@H](Cc2ccccc2)C(=O)N2CCC[C@H]2C(=O)N[C@H](C=O)CCCNC(=N)N)c1.Cl [Example 15, 2,5-(MeO)2 -PhSO2 -D-Phe-Pro-Arg-H-HCl] | 200 L/mol × 10^6 | 8.8 L/mol × 10^6 | 150 L/mol × 10^6 | 9.5 L/mol × 10^6 | 1.5 L/mol × 10^6 | 92 ng/mL | 550 ng/mL | 2,000 ng/ML
Cc1noc(C)c1S(=O)(=O)N[C@H](Cc1ccccc1)C(=O)N1CCC[C@H]1C(=O)N[C@H](C=O)CCCNC(=N)N.Cl [Example 16, 3,5-Me-4-isoxazolyl-SO2 -D-Phe-Pro-Arg-H.HCl] | 260 L/mol × 10^6 | 11 L/mol × 10^6 | 200 L/mol × 10^6 | 18 L/mol × 10^6 | 2.7 L/mol × 10^6 | 33 ng/mL | 430 ng/mL | 1,300 ng/ML
Cl.N=C(N)NCCC[C@@H](C=O)NC(=O)[C@@H]1CCCN1C(=O)[C@@H](Cc1ccccc1)NS(=O)(=O)c1nccs1 [Example 19, 2-Thiazolyl-SO2 -D-Phe-Pro-Arg-H-HCl] | 68 L/mol × 10^6 | 2.8 L/mol × 10^6 | 52 L/mol × 10^6 | 3.4 L/mol × 10^6 | 0.31 L/mol × 10^6 | 66 ng/mL | 810 ng/mL | 2,900 ng/ML
CCS(=O)(=O)N[C@@H](C(=O)N1CCC[C@H]1C(=O)N[C@H](C=O)CCCNC(=N)N)c1ccccc1.Cl [Example 20, EtSO2 -D-Phg-Pro-Arg-H.HCl] | 510 L/mol × 10^6 | 45 L/mol × 10^6 | 160 L/mol × 10^6 | 14 L/mol × 10^6 | 0.34 L/mol × 10^6 | 34 ng/mL | 250 ng/mL | 880 ng/mL
Cl.N=C(N)NCCC[C@@H](C=O)NC(=O)[C@@H]1CCCN1C(=O)[C@@H](Cc1ccccc1)NCC(=O)O [Example 35, HOOCCH2 -D-Phe-Pro-ArgH.HCl] | 695 L/mol × 10^6 | 3.3 L/mol × 10^6 | – | – | – | 14 ng/mL | 723 ng/mL | 1129 ng/mL
Cl.N=C(N)NCCC[C@@H](C=O)NC(=O)[C@@H]1CCCN1C(=O)[C@@H](CC1CCCCC1)NCC(=O)O [Example 36, HOCCH2 -D-Cha-Pro-ArgH.HCl] | 556 L/mol × 10^6 | 40.5 L/mol × 10^6 | – | – | – | 9 ng/mL | 284 ng/mL | 695 ng/mL
